Drawing on US12465590B2, “Oxalamido-substituted tricyclic inhibitors of hepatitis b virus” (priority 2019, dated 2025), this text covers EC50 for one molecule.

What all share (conditions): Hepatitis B virus, HepG2, read-out: EC50 ± StD (nM)
Experiment [1] concerns HBV core protein variant T33N. Put plainly: Antiviral effect against core variants, transfected HepG2 cells. The format is cell-based, HBV genotype D. The method, then: (§1) HepG2 cell line was used for HBV genotypes and core variants inhibition assays. HepG2 cell line is maintained in DMEM supplemented with 10% of fetal bovine serum, 1% of glutamine and 1% of penicillin/streptomycin.
(§2) HepG2 cells were seeded in polylysine coated 96 multiwell plates at a density of 2*10^4 cells/well and incubated overnight at 37° C. The following day cells were transfected with the HBV plasmids (100 ng/well) using the Lipofectamine 3000 Reagent (Thermo Fisher Scientific) and following manufacturer instructions. After 5 h transfection mixtures were removed and cells were treated with serially diluted compounds in 0.5% DMSO at 8-point dose-response as previously described. After 96 hours of incubation at 37° C. with compound the supernatants were collected, centrifuged for cell debris clarification and incubated with DNase I amplification grade 1 Unit/50 μl (Sigma) for 1 h at 37° C. to allow plasmid input digestion. Quantification of extracellular HBV DNA with direct qPCR was performed as previously described. To avoid unspecific detection of HBV plasmid and to confirm plasmid digestion, specific primers designed across plasmid backbone and HBV sequence were added as controls (HBV-CNT-gt-F:5′-[…]-3′ (SEQ ID No. 3), HBV-CNT-gt-R:5′-[…]-3′(SEQ ID No. 4)). Antiviral activity data for each genotype are reported as EC50 mean value. Moreover the EC50 shift value is indicated, corresponding to the ratio between the observed EC50 and the EC50 for genotype D, which is used as reference genotype (see RESULTS, Table 2 legend). Excel and Graphpad Prism programs are typically used for data elaboration and EC50 calculation.
(§3) The experimental procedure for antiviral effect against HBV core protein variants was similar to the one previously described for antiviral effect on HBV A-E Genotypes. Different core point mutations (F23Y, F110I, I105T, L37Q, T33N, T33P, T128I, V124G, Y118F) were selected based on their ability to reduce potency of CAMs currently in development (literature data) and introduced in the plasmids containing the HBV genome of genotype D (pcDNA3.1-HBV1.1-D, described above). The following list of plasmids was generated by site-directed mutagenesis of the parent plasmid pcDNA3.1-HBV1.1-D (p26 in J Virol. 2010, 84, 3879-88): pcDNA3.1-HBV1.1-D-CoreF23Y, pcDNA3.1-HBV1.1-D-CoreF110I, pcDNA3.1-HBV1.1-D-Core 1105 T, pcDNA3.1-HBV1.1-D-CoreL37Q, pcDNA3.1-HBV1.1-D-CoreT33N, pcDNA3.1-HBV1.1-D-CoreT33P, pcDNA3.1-HBV1.1-D-CoreT128I, pcDNA3.1-HBV1.1-D-CoreV124G, pcDNA3.1-HBV1.1-D-CoreY118F (point mutations in the nucleotide codon relative to the indicated core aminoacid substitution are the followings: TTC/TAC for F23Y, TTT/ATT for F110I, ATT/ACT for I105T, CTG/CAG for L37Q, ACC/AAC for T33N, ACC/CCC for T33P, ACT/ATT for T128I, GTG/GGG for V124G, TAT/TTT for Y118F). Antiviral activity data for each variant are reported as EC50 mean value and EC50 shift compared to wild type (see RESULTS, Table 4 legend). Excel and Graphpad Prism programs are typically used for data elaboration and EC50 calculation.

For experiment [2], the system named is HBV core protein variant L37Q. Described as above. The format is cell-based, HBV genotype D. On the procedure:
as §1, §2, §3

Experiment [3] relates to HBV core protein variant T128I. Described as above. The format is cell-based, HBV genotype D. The method, then:
as §1, §2, §3

Experiment [4] concerns HBV core protein variant Y118F. The description is as above. The format is cell-based, HBV genotype D. On the procedure:
as §1, §2, §3

In experiment [5] the test system is HBV core protein variant I105T. The experiment is described as above. The format is cell-based, HBV genotype D. On the procedure:
as §1, §2, §3

Experiment [6] has as its system HBV core protein variant F23Y. The experiment is described as above. The format is cell-based, HBV genotype D. The method, then:
as §1, §2, §3

In experiment [7] the test system is HBV core protein variant T33P. The experiment is described as above. The format is cell-based, HBV genotype D. The method, then: as §1, §2, §3
For experiment [8], the system named is HBV core protein variant F110I. The experiment is described as above. The format is cell-based, HBV genotype D. On the procedure:
as §1, §2, §3

The test system of experiment [9] is HBV core protein variant V124G. Described as above. The format is cell-based, HBV genotype D. On the procedure:
as §1, §2, §3

In another experiment the test system is HBV genotype B2. Description: Antiviral effect on HBV genotypes, transiently transfected HepG2 cells. The format is cell-based.
Source text: as §1
(§4) For antiviral effect on HBV A-E genotypes, HepG2 cell line and DNA plasmids expressing HBV genome of different genotypes, from A to E, were used. HepG2 were transiently transfected with plasmid DNA harboring 1.1-mer-overlength genomic sequences of each HBV genotypes A to E isolates cloned into the pcDNA3.1/Zeo(−) vector as described in J Virol. 2010, 84, 3879-88 (https://doi.org/10.1128/JVI.02528-09). Each plasmid contains the 1.1×HBV genome under the control of a CMV promoter. The list of plasmid used is the following: pcDNA3.1-HBV1.1-A2 (HBV genotype A2), pcDNA3.1-HBV1.1—B2 (HBV genotype B2), pcDNA3.1-HBV1.1—C2 (HBV genotype C2), pcDNA3.1-HBV1.1-D (described as p26 in the above reference, HBV genotype D), pcDNA3.1-HBV1.1-E (HBV genotype E). Methods of generating plasmids are well know in the art (as for example in Viruses 2020, 12, 353, doi:10.3390/v12030353; Antiviral Research 144 (2017) 205-215, http://dx.doi.org/10.1016/j.antiviral.2017.06.016) and the selection of a suitable method is not a limitation on the present invention.
as §2

The next experiment concerns HBV genotype A2. The description is as above. The format is cell-based.
Source text: as §1, §4, §2

The test system of another experiment is HBV genotype C2. The description is as above. The format is cell-based.
Source text: as §1, §4, §2

The test system of the next experiment is HBV genotype D. The description is as above. The format is cell-based.
Source text: as §1, §4, §2

Another experiment relates to HBV genotype E. Described as above. The format is cell-based.
Source text: as §1, §4, §2

In general, EC50 refers to the midpoint of the concentration-response curve. Take `Cc1cc(NC(=O)c2c3c(cn2C)S(=O)(=O)N[C@H]2CN(C(=O)C(=O)N[C@@H](C)C(F)(F)F)C[C@H]2CO3)ccc1F` [Example E15, (3aR,10aR)—N-(4-fluoro-3-methylphenyl)-7-methyl-2-(2-oxo-2-(((S)-1,1,1-trifluoropropan-2-yl)amino)acetyl)-2,3,3a,4,10,10a-hexahydro-1H,7H-dipyrrolo[3,4-b:3′,4′-f][1,4,5]oxathiazocine-8-carboxamide 5,5-dioxide]: the EC50 in experiment [1] was 46.9 ± 21.1 nM; in [2] it was 8.72 ± 3.76 nM; in experiment [3] it was 8.91 ± 5.85 nM; in experiment [4] it was 6.37 ± 1.84 nM; in experiment [5], 3.22 ± 1.45 nM; in [6] it was 6.33 ± 0.94 nM. The EC50 turned out to be 1.68 ± 0.37 nM in experiment [7]; 1.12 ± 0.3 nM in experiment [8]; 6.8 ± 2.08 nM in [9]; 1.58 ± 0.7 nM in the experiment on HBV genotype B2; 2.14 ± 0.43 nM with HBV genotype A2; 0.72 ± 0.55 nM in the experiment on HBV genotype C2. Further, the values for the EC50 in the experiment with HBV genotype D and with HBV genotype E were 0.94 ± 0.49 nM and 1.79 ± 1.08 nM, respectively.
